Experimental data as given in patent publication US20250197424A1, “QUINOLINE COMPOUND AND USE THEREOF” (SHANGHAI PHARMACEUTICALS HOLDING CO., LTD., priority 2022, published 2025).
Where a name gives a salt, the structure may show the parent alone. Read-outs that look alike come from different tables or passages of the source. Marks after values point to notes of the source that are not given here.

Tests used:
GTP-KRAS-WT:SOS1 = GTP-KRAS-WT:SOS1 (Homo sapiens (Human), UniProt P01116); assay: KRAS_WT and SOS1 binding inhibition (KRAS-WT/SOS1 binding kit, 665/615 ratio); conditions: GTP 10 μM
Excerpt: To detect the inhibitory capability of small molecule compounds on the binding activity between KRAS_WT and SOS1 using a drug screening system based on the binding of KRAS_WT and SOS1 interaction.
a) BI-2852 was used as a positive control, with its stock solution as the first dilution point, followed by a 3-fold dilution, making a total of 10+0 dilutions. Similarly, the first dilution point of the test compounds was also their respective stock solutions, followed by a 3-fold dilution, making a total of 11+0 dilutions. Using Echo, 0.2 μL of the gradient-diluted compound solutions were transferred into a 384-well plate, with each compound tested in duplicate. The final DMSO concentration was 1%. The plate was centrifuged at 1000 rpm for 1 minute. The final concentrations of the positive controls were 100, 33.33, 11.11, 3.70, 1.23, 0.412, 0.137, 0.046, 0.015, 0.005, and 0 μM. The final concentrations of the test compounds were […], 0.01, and 0 μM.
b) KRAS_WT from the kit was prepared with GTP at a final concentration of 10 μM in the dilution buffer, and 5 μL was transferred into the 384-well reaction plate. The plate was centrifuged at 1000 rpm for 1 minute.
c) Subsequently, 5 μL of the SOS1 mixture was transferred into the 384-well reaction plate. The plate was centrifuged at 1000 rpm for 1 minute and incubated at 25° C. for 15 minutes.
d) 10 μL of the detection mixture was transferred into the 384-well reaction plate. The plate was centrifuged at 1000 rpm for 1 minute and incubated overnight at 4° C.
e) The […] and emission wavelength at 615 nm were read using an Envision multimode plate reader. The 665/615 ratio signal intensity was used to characterize the enzyme activity.
(§1) The IC50 of the compounds was fitted using a nonlinear regression equation with GraphPad Prism 8. The results are presented in Table 2: • Negative control: DMSO • Positive control: 100 μM BI-2852
(§2) The following nonlinear fitting formula was used to obtain the IC50 (half-maximal inhibitory concentration) of the compounds:
(§3) [formula] • X: logarithm of the compound concentration • Y: 665/615 Ratio

GTP-KRAS-G12D:CRAF = GTP-KRAS-G12D:CRAF (Homo sapiens (Human), UniProt P01116, G12D); assay: GTP-KRAS-G12D:CRAF binding inhibition
Description: The IC50 of the compounds was fitted using a nonlinear regression equation with GraphPad Prism 8. The results are presented in Table 2: • Negative control: DMSO • Positive control: 100 μM BI-2852 The following nonlinear fitting formula was used to obtain the IC50 (half-maximal inhibitory concentration) of the compounds: [formula] • X: logarithm of the compound concentration • Y: 665/615 Ratio

GTP-KRAS-G12D:SOS1 = GTP-KRAS-G12D:SOS1 (Homo sapiens (Human), UniProt P01116, G12D); assay: GTP-KRAS-G12D:SOS1 binding inhibition
Description: as §1, §2, §3

[1] = In vivo bioavailability experiment in mice (pharmacokinetics); conditions: ICR mice; for clearance / half-life / MRT / Vd / bioavailability: mouse, plasma; for MRT: read-out: Mean residence time; for Vd: read-out: Steady-state volume of distribution
Description: Experimental Animals: ICR mice, weighing 20 grams, provided by Sino-British SIPPR Lab Animal Ltd, Shanghai. The compound to be tested was accurately weighed and dissolved in DMSO to prepare a stock solution with a concentration of 15 mg/mL. The compound stock solution was accurately measured and diluted with 0.9% saline and Solutol in a ratio of 8.8:1 to a concentration of 0.3 mg/mL. The solution was clear and transparent, used for intravenous administration. Additionally, the compound was accurately weighed and mixed with 0.5% CMC-Na to a concentration of 0.5 mg/mL, used for oral gavage administration. Intravenous group: Three ICR mice, weighing 20 g+2 g, were intravenously administered the intravenous dosing solution. The dosing volume was 10 mL/kg, with a dose of 3 mg/kg. Blood samples (0.03 mL) were collected from the fundus vein of the mice at pre-dose and at 2, 15, 30, 60, 120, 240, 480, and 1440 minutes post-dose. Oral gavage group: Three ICR mice, weighing 20 g+2 g, were administered the oral gavage dosing solution. The dosing volume was 20 mL/kg, with doses of 10 mg/kg and 30 mg/kg. Blood samples (0.03 mL) were collected from the fundus vein of the mice at pre-dose and at 5, 15, 30, 60, 120, 240, 480, and 1440 minutes post-dose. The blood samples were centrifuged at 6800 g for 6 minutes at 2-8° C. The plasma was collected and stored in centrifuge tubes at -70° C. for later analysis. A 19 μL aliquot of blank mouse plasma was taken, and 1 μL of the standard curve working solution was added to prepare a series of concentration samples at 1, 0.5, 0.2, 0.1, 0.05, 0.01, 0.005, and 0.001 μg/mL. The mixture was vortexed and mixed well, and 400 μL of methanol containing an internal standard (Warfarin, 100 ng/mL) was added to precipitate the proteins. The mixture was vortexed and shaken for 1 minute, centrifuged at 18000 g for 7 minutes at 4° C., and the supernatant was transferred to a 96-well plate for injection. A 20 μL aliquot of the plasma sample was mixed with 400 μL of methanol containing an internal standard (Warfarin, 100 ng/mL) to precipitate the proteins. The mixture was vortexed for 10 minutes, centrifuged at 18000 g for 7 minutes at 4° C., and 400 μL of the supernatant was transferred to a 96-well plate for a 10 μL injection. Liquid chromatography system: Acquity UPLC system (including a binary solvent manager, sample manager, column heater, and degasser) from Waters Corporation, USA. MS/MS system: QTRAP® 6500+ triple quadrupole mass spectrometer equipped with an electrospray ionization (ESI) source from Sciex Corporation, USA. Analytical column: BEH C18 column, 1.7 μm, 50×2.1 mm I.D., from Waters Corporation, USA. Flow rate: 0.60 mL/min; injection volume: 10 μL; column temperature: 40° C. The gradient elution program used was as follows: The ion source was an electrospray ionization source (Turbo Ionspray, ESI); the ion spray voltage was […]; the temperature was 500° C.; the ion source gas 1 (N2) pressure was 50 psi; the ion source gas 2 (N2) pressure was 50 psi; the curtain gas (N2) pressure was 20 psi; the collision gas pressure (CAD) was Medium; detection was performed in positive ion mode; the scan type was multiple reaction monitoring (MRM).

[2] = intravenous injection, dose 3 (3 mg/kg in method)
[3] = oral, dose 30 (30 mg/kg in method)

Compound	IC50 (GTP-KRAS-WT:SOS1) [nM]	IC50 (GTP-KRAS-G12D:CRAF) [nM]	IC50 (GTP-KRAS-G12D:SOS1) [nM]	Area under curve [1, 2]	Maximum plasma concentration [1, 2] [ng/mL]	Area under curve [1, 3]	Maximum plasma concentration [1, 3] [ng/mL]	clearance [1, 2] [mL/min/kg]	half-life [1, 2] [h]	MRT [1, 2] [h]	Vd [1, 2] [L/kg]	bioavailability [1, 3] [%]	half-life [1, 3] [h]	MRT [1, 3] [h]
Oc1cc(Cl)c2c(c1)C1(CC2)CCc2c(nc(OC[C@@]34CCCN3C[C@H](F)C4)nc2N2CC3CCC(C2)N3)C1F (single isomer, unassigned) [Compound 8a, (1S or 1R,8'S or 8′R)-4′-((1R,5S)-3,8-Diazabicyclo[3.2.1]octan-3-yl)-4-chloro-8′-fluoro-2′-(((2R,7aS)-2-fluorotetrahydro-1H-pyrrolizin-7a(5H)-yl)methoxy)-2,3,5′,8′-tetrahydro-6′H-spiro[indene-1,7′-quinazolin]-6-ol dihydrochloride]	61.2	19.5	13.5	–	–	–	–	–	–	–	–	–	–	–
F[C@H]1CN2CCC[C@@]2(COc2nc3c(c(N4CC5CCC(C4)N5)n2)CCC2(CCc4c(Cl)cccc42)C3)C1 (single isomer, unassigned) [Compound 1a, (S or R)-4′-((1R,5S)-3,8-Diazabicyclo[3.2.1]octan-3-yl)-4-chloro-2′-((2R,7aS)-2-fluorotetrahydro-1H-pyrrolizin-7a(5H)-ylmethoxy)-2,3,5′,8′-tetrahydro-6′H-spiro[indene-1,7′-quinazoline]dihydrochloride]	4100	333	45.6	–	–	–	–	–	–	–	–	–	–	–
Oc1cc(-c2cc3c4c(nc(OC[C@@]56CCCN5C[C@H](F)C6)nc4c2F)N2C[C@@H]4CC[C@@H](N4)[C@H]2CO3)c2ccccc2c1 [Compound 3, dihydrochloride]	79.6	12.3	11.9	–	–	–	–	–	–	–	–	–	–	–
(R or S)-4-((5aS,6R,9S)-1,3-difluoro-13-((2R,7aS)-2-fluorotetrahydro-1H-pyrrolizin-7a(5H)-ylmethoxy)-5a,6,7,8,9,10-hexahydro-5H-6,9-epiminoazepino[2′,1′:3,4][1,4]oxazepino[5,6,7-de]quinazolin-2-yl)-5-ethynyl-6-fluoronaphthalen-2-ol [4b′]	5.6	8.22	18.3	–	–	–	–	–	–	–	–	–	–	–
Oc1cc(Cl)c2c(c1)C1(CC2)CCc2c(nc(OC[C@@]34CCCN3C[C@H](F)C4)nc2N2CC3CCC(C2)N3)C1F (single isomer, unassigned) [Compound 8d, (1R or 1S, 8'S or 8′R)-4′-((1R,5S)-3,8-diazabicyclo[3.2.1]octan-3-yl)-4-chloro-8′-fluoro-2′-(((2R,7aS)-2-fluorotetrahydro-1H-pyrrolizin-7a(5H)-yl)methoxy)-2,3,5′,8′-tetrahydro-6′H-spiro[indene-1,7′-quinazolin]-6-ol dihydrochloride]	4750	491	115	–	–	–	–	–	–	–	–	–	–	–
CCc1cccc2cc(O)cc(-c3c(F)c4c5c(nc(OC[C@@]67CCCN6C[C@H](F)C7)nc5c3F)N3CC5CCC(N5)C3CCO4)c12 (single isomer, unassigned) [13a′, 4-((2S or 2R,6aS,7S,10R)-1,3-Difluoro-14-(((2R,7aS)-2-fluorotetrahydro-1H-pyrrolizin-7a(5H)-yl)methoxy)-5,6,6a,7,8,9,10,11-octahydro-7,10-epiminoazepino[1′,2′: 5,6][1,5]oxazocino[4,3,2-de]quinazolin-2-yl)-5-ethylnaphthalen-2-ol]	–	–	28.2	2062.35 (h) * (ng/mL)	3563.93	3091.66 (h) * (ng/mL)	781.43	6.5	15.9	4.73	5.33	15	4.68	4.53
CCc1cccc2cc(O)cc(-c3c(F)c4c5c(nc(OC[C@]67C[C@@H](F)CN6C[C@@H](COC)C7)nc5c3F)N3CC5CCC(N5)C3CO4)c12 (single isomer, unassigned) [Compound 18b, 4-((2S or 2R,5aS,6S,9R)-1,3-difluoro-13-(((2R,6S,7aS)-2-fluoro-6-(methoxymethyl)tetrahydro-1H-pyrrolizin-7a(5H)-yl)methoxy)-5a,6,7,8,9,10-hexahydro-5H-6,9-epiminoazepino[2′,1′:3,4][1,4]oxazepino[5,6,7-de]quinazolin-2-yl)-5-ethylnaphthalen-2-ol dihydrochloride]	–	–	7.5	1944.73 (h) * (ng/mL)	7632.72	1904.95 (h) * (ng/mL)	508.76	24.5	11.8	1.41	4.98	9.8	3.57	3.77
CCc1cccc2cc(O)cc(-c3c(F)c4c5c(nc(OC[C@]67C[C@@H](F)CN6C[C@@H](CN6C[C@@H](C)O[C@@H](C)C6)C7)nc5c3F)N3CC5CCC(N5)C3CO4)c12 (single isomer, unassigned) [Compound 25b, 4-((2S or 2R)-13-(((2R,6R,7aS)-2-(((2R,6S)-2,6-dimethylmorpholino)methyl)-6-fluorotetrahydro-1H-pyrrolizin-7a(5H)-yl)methoxy)-1,3-difluoro-5a,6,7,8,9,10-hexahydro-5H-6,9-epiminoazepino[2′,1′:3,4][1,4]oxazepino[5,6,7-de]quinazolin-2-yl)-5-ethylnaphthalen-2-ol trihydrochloride]	–	–	6.72	7940.26 (h) * (ng/mL)	22039.3	2365.19 (h) * (ng/mL)	863.75	6.33	12.2	1.01	0.84	2.98	3.81	3.15
